By Ki is commonly meant a dissociation constant, usually derived from enzyme kinetics or from competition with a known ligand. Broadly, the IC50 is the concentration at which inhibition is half-maximal.

In assay [1] the target is T1, Sodium- and chloride-dependent GABA transporter 1 (Mus musculus, UniProt P31648). Description: Binding affinity to mouse GAT-1 expressed in HEK293 cells after 4 hrs in presence of NO711 by LC-ESI-MS/ms analysis. Format: cell-based.
Assay [2] addresses T1, Sodium- and chloride-dependent GABA transporter 1. Kind of assay: Inhibition of mouse GAT-1 expressed in HEK293 cells assessed as decrease in [3H]GABA uptake preincubated for 25 mins followed by [3H]GABA addition and measured after 4 mins by scintillation counting analysis. Format: cell-based.
In assay [3] the target is T2, GABA transporter 4 (Mus musculus) (UniProt P31650).
T2 sequence (whole entry): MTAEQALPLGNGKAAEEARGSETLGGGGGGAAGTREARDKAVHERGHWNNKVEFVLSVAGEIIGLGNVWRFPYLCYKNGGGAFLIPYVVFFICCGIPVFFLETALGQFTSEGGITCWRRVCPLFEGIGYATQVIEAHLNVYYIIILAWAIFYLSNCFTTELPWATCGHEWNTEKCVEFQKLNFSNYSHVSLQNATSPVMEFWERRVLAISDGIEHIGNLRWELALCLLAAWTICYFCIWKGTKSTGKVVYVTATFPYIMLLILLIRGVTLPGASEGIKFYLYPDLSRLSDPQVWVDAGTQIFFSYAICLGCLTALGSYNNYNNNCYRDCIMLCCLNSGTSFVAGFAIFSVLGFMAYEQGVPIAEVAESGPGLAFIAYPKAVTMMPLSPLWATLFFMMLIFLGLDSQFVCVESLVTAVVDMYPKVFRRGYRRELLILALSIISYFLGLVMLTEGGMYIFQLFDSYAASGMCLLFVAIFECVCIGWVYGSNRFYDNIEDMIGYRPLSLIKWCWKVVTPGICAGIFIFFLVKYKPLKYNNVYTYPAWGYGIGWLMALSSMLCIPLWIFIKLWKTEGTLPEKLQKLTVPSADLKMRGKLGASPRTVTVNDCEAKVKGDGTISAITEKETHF
Kind of assay: Inhibition of mouse GAT-4 expressed in HEK293 cells assessed as remaining [3H]GABA uptake at 100 uM preincubated for 25 mins followed by [3H]GABA addition and measured after 4 mins by scintillation counting analysis. The format is cell-based.

The test system of assay [4] is Sodium- and chloride-dependent GABA transporter 2 (Mus musculus). Kind of assay: Inhibition of mouse GAT-3 expressed in HEK293 cells assessed as remaining [3H]GABA uptake at 100 uM preincubated for 25 mins followed by [3H]GABA addition and measured after 4 mins by scintillation counting analysis.
In assay [5] the test system is Sodium- and chloride-dependent betaine transporter (Mus musculus). Description: Inhibition of mouse GAT-2 expressed in HEK293 cells assessed as remaining [3H]GABA uptake at 100 uM preincubated for 25 mins followed by [3H]GABA addition and measured after 10 mins by scintillation counting analysis.
The target of assay [6] is Sodium- and chloride-dependent GABA transporter 1 (Mus musculus) (UniProt P31648). Kind of assay: Inhibition of mouse GAT-1 assessed as percentage of remaining specific binding of NO711 at 100 nM after 4 hrs by LC-ESI-MS/ms analysis relative to control.
Assay [7] has the same target. Kind of assay: Inhibition of mouse GAT-1 assessed as percentage of remaining specific binding of NO711 at 1 uM after 4 hrs by LC-ESI-MS/ms analysis relative to control.

Turning to `O=C(O)C1=CCCN(CCO/N=C/c2ccccc2-c2ccc(Cl)cc2Cl)C1`, in assay [1], the Ki is 5.13 nM. In assay [2], the IC50 was 5.37 nM.

For `O=C(O)[C@@H]1CCCN(CCO/N=C/c2ccccc2-c2ccc(F)cc2Cl)C1`, the Ki in assay [1] is 2.82 nM. The Activity in assay [3] was found to be 50.9%; in assay [4], 77.7%; in assay [5] it was 50.1%. Moreover, the IC50 in assay [2] is 32.4 nM.

`O=C(O)C1=CCCN(CCO/N=C/c2ccccc2-c2ccc(F)cc2F)C1`: the Ki in assay [1] was 4.47 nM. In addition, the IC50 in assay [2] was 56.2 nM.

Turning to `O=C(O)[C@@H]1CCCN(CCO/N=C/c2ccccc2-c2ccc(F)cc2F)C1`, the Ki in assay [1] is 5.89 nM. Further, the Activity in assay [3] was 62.5%; in assay [4], 75.5%; in assay [5], 56.6%. Further, in assay [2], the IC50 is 102 nM.

In the case of `O=C(O)C1CCCN(CCO/N=C/c2ccccc2-c2ccc(F)cc2F)C1` (racemic), in assay [1], the Ki was 13.8 nM. In addition, the Activity in assay [3] amounted to 62.5%; in assay [4], 90.9%; in assay [6], 16%; in assay [7] it was 17%; in assay [5], 78.3%. For the same molecule, the IC50 in assay [2] was 85.1 nM.

In the case of `O=C(O)C1CCCN(CCO/N=C/c2ccccc2-c2ccc(F)cc2Cl)C1` (racemic), the Ki in assay [1] is 10 nM. The Activity in assay [3] is 80.9%; in assay [4], 62.6%; in assay [6] it was “Below limit of detection”; in assay [7], 11%; in assay [5], 61.6%. Moreover, the half-maximal inhibitory concentration (IC50) in assay [2] is 66.1 nM.

For `CC(/C=N/OCCN1CCCC(C(=O)O)C1)(CCC#N)c1ccccc1` (racemic), the Activity amounted to 48% in assay [6] and 7% in assay [7].

As for `Cc1ccccc1-c1ncccc1/C=N/OCCN1CCCC(C(=O)O)C1` (racemic), the Activity in assay [7] came to 22%.

In the case of `Cc1onc(-c2ccc(Cl)cc2)c1/C=N/OCCN1CCCC(C(=O)O)C1` (racemic), the Activity in assay [6] came out at 48%; in assay [7], 7%.

In the case of `O=C(O)C1CCCN(CCO/N=C/C(c2ccccc2)c2ccccc2)C1` (racemic), the Activity in assay [6] came to 20%; in assay [7], 41%.

As for `O=C(O)C1CCCN(CCO/N=C/c2c[nH]nc2-c2ccc(F)cc2)C1` (racemic), the figures for the Activity in assay [6] and in assay [7] were 48% and 7%, respectively.

For the molecule `O=C(O)C1CCCN(CCO/N=C/c2cc(F)ccc2-c2ccccc2)C1` (racemic), the Activity in assay [6] was determined as 16%; in assay [7], 58%.

As to `O=C(O)C1CCCN(CCO/N=C/c2cc(F)ccc2-c2ccccc2Cl)C1` (racemic), the results for the Activity in assay [6] and in assay [7] were 16% and 41%, respectively.

As to `O=C(O)C1CCCN(CCO/N=C/c2cc(F)ccc2-c2ccccc2F)C1` (racemic), the Activity in assay [6] worked out at 16%; in assay [7], 42%.

Take `O=C(O)C1CCCN(CCO/N=C/c2cc3c(cc2-c2ccc(Cl)cc2Cl)OCO3)C1` (racemic): the Activity in assay [7] is 19%.

For the molecule `O=C(O)C1CCCN(CCO/N=C/c2cc3c(cc2-c2ccccc2)OCO3)C1` (racemic), in assay [7], the Activity stood at 19%.

As for `O=C(O)C1CCCN(CCO/N=C/c2cc3c(cc2-c2ccccc2Cl)OCO3)C1` (racemic), the Activity in assay [7] was determined as 19%.

For `O=C(O)C1CCCN(CCO/N=C/c2cc3c(cc2-c2ccccc2F)OCO3)C1` (racemic), in assay [7], the Activity was found to be 19%.

Turning to `O=C(O)C1CCCN(CCO/N=C/c2ccc(-c3ccc(C(F)(F)F)cc3Cl)o2)C1` (racemic), the Activity result in assay [6] is “Below limit of detection”; in assay [7], 83%.

Take `O=C(O)C1CCCN(CCO/N=C/c2ccc(-c3ccccc3)cc2)C1` (racemic): the Activity in assay [6] stood at 20%; in assay [7], 80%.

For `O=C(O)C1CCCN(CCO/N=C/c2ccc(-c3ccccc3OC(F)(F)F)o2)C1` (racemic), the Activity result is “Below limit of detection” in assay [6] and 84% in assay [7].

As to `O=C(O)C1CCCN(CCO/N=C/c2ccc3c(c2)Cc2ccccc2-3)C1` (racemic), in assay [7], the Activity is 37%.

As to `O=C(O)C1CCCN(CCO/N=C/c2cccc(-c3ccccc3)c2)C1` (racemic), the Activity in assay [6] amounted to 20%; in assay [7], 87%.

Take `O=C(O)C1CCCN(CCO/N=C/c2cccc3c2OCO3)C1` (racemic): the Activity in assay [7] came out at 32%.

Take `O=C(O)C1CCCN(CCO/N=C/c2ccccc2-c2c(F)cccc2F)C1` (racemic): the figures for the Activity in assay [6] and in assay [7] were 17% and 39%, respectively.

Turning to `O=C(O)C1CCCN(CCO/N=C/c2ccccc2-c2cc(F)ccc2F)C1` (racemic), the Activity was determined as 17% in assay [6] and 71% in assay [7].

As to `O=C(O)C1CCCN(CCO/N=C/c2ccccc2-c2ccc(Cl)cc2)C1` (racemic), the Activity is 38% in assay [6] and “Below limit of detection” in assay [7].

With `O=C(O)C1CCCN(CCO/N=C/c2ccccc2-c2ccc(Cl)cc2F)C1` (racemic), the Activity in assay [6] was 17%; in assay [7], 24%.

Turning to `O=C(O)C1CCCN(CCO/N=C/c2ccccc2-c2ccc(F)cc2)C1` (racemic), the Activity in assay [6] is 38%; in assay [7], “Below limit of detection”.

Consider `O=C(O)C1CCCN(CCO/N=C/c2ccccc2-c2ccc3ccccc3c2)C1` (racemic), for which the Activity entry was “Below limit of detection” in assay [6] and 89% in assay [7].

`O=C(O)C1CCCN(CCO/N=C/c2ccccc2-c2cccc(Cl)c2)C1` (racemic): the Activity in assay [6] was 38%; in assay [7] it was “Below limit of detection”.

For the molecule `O=C(O)C1CCCN(CCO/N=C/c2ccccc2-c2cccc(F)c2)C1` (racemic), the Activity in assay [6] was 38%; in assay [7] it was “Below limit of detection”.

Take `O=C(O)C1CCCN(CCO/N=C/c2ccccc2-c2cccc(F)c2F)C1` (racemic): the Activity came to 17% in assay [6] and 39% in assay [7].

Take `O=C(O)C1CCCN(CCO/N=C/c2ccccc2-c2ccccc2)C1` (racemic): the Activity in assay [6] worked out at 20%; in assay [7] it was 47%.

On to `O=C(O)C1CCCN(CCO/N=C/c2ccccc2-c2ccccc2Cl)C1` (racemic), for which the Activity entry is “Below limit of detection” in assay [6] and 26% in assay [7].

As to `O=C(O)C1CCCN(CCO/N=C/c2ccccc2-c2ccccc2F)C1` (racemic), the figures for the Activity result in assay [6] and in assay [7] were “Below limit of detection” and 25%, respectively.

For the molecule `O=C(O)C1CCCN(CCO/N=C/c2ccccc2-c2cccnc2)C1` (racemic), the Activity in assay [7] turned out to be 37%.

Turning to `O=C(O)C1CCCN(CCO/N=C/c2ccccc2-c2ccco2)C1` (racemic), the Activity in assay [7] is 32%.

Turning to `O=C(O)C1CCCN(CCO/N=C/c2ccccc2-c2cccs2)C1` (racemic), the Activity in assay [6] stood at 48%; in assay [7], 7%.

For the molecule `O=C(O)C1CCCN(CCO/N=C/c2ccccc2-n2cccn2)C1` (racemic), the Activity in assay [7] was 37%.

`O=C(O)C1CCCN(CCO/N=C/c2ccccc2Oc2ccccc2)C1` (racemic): the Activity in assay [7] came to 37%.

On to `O=C(O)C1CCCN(CCO/N=C/c2cccn2-c2ccc(C(F)(F)F)cc2)C1` (racemic), for which the values for the Activity result in assay [6] and in assay [7] were “Below limit of detection” and 91%, respectively.

As for `O=C(O)C1CCCN(CCO/N=C/c2cccnc2-c2ccc(Cl)cc2)C1` (racemic), the Activity in assay [7] turned out to be 22%.

For the molecule `O=C(O)C1CCCN(CCO/N=C/c2cccnc2-c2ccc(Cl)cc2Cl)C1` (racemic), the figures for the Activity result in assay [6] and in assay [7] were “Below limit of detection” and 31%, respectively.

For `O=C(O)C1CCCN(CCO/N=C/c2cccnc2-c2cccc(Cl)c2)C1` (racemic), the Activity in assay [7] stood at 32%.

As to `O=C(O)C1CCCN(CCO/N=C/c2cccnc2-c2cccc(F)c2)C1` (racemic), the Activity in assay [7] was determined as 22%.

For `O=C(O)C1CCCN(CCO/N=C/c2cccnc2-c2ccccc2F)C1` (racemic), in assay [7], the Activity is 32%.

As for `O=C(O)C1CCCN(CCO/N=C/c2sccc2-c2ccc(F)cc2Cl)C1` (racemic), the Activity entry was “Below limit of detection” in assay [6] and 24% in assay [7].

Turning to `Cc1ccsc1C(=CCCN1CCC[C@@H](C(=O)O)C1)c1sccc1C` [TIAGABINE], in assay [1], the Ki was 55 nM.

Values taken from ChEMBL document CHEMBL4400545 (Bioorg Med Chem, 2019).
